Earlier results in PMC7395068, “The evolution of strategies to minimise the risk of human drug-induced liver injury (DILI) in drug discovery and development” (Archives of Toxicology, 2020).
Where two headings read alike, the source gives them in different places.

Tests used:
[1] = cited from earlier work
[2] = tested on: THLE or HepG2 cells, isolated mitochondria, BSEP; conditions: cited from earlier work
[3] = cited from earlier work; remark: listed apart in the source
[4] = tested on: primary human hepatocytes, NIH3T3 fibroblasts, BSEP, CYP3A4; conditions: cited from earlier work

Row | Compound | In vivo DILI ([3]; ref Aleo 2019) | Partition Hybrid HRM Score ([2]; In vitro Assay, ref Aleo 2019) | Ro2 Hybrid HRM Score ([2]; In vitro Assay, ref Aleo 2019) | DILI +VE (5-8), DILI -VE (-4) ([1]; ref Chen 2016) | DILI severity category ([1]; ref Chen 2016) | also measured
1 | Nc1ccc(C(=O)O)c(O)c1 [4-aminosalicylic acid] |  |  |  |  |  | DILI +VE (5-8), DILI -VE (-4) ([1]; in vivo): +VE; DILI severity category ([1]; in vivo): vMost-DILI-Concern; Partition Hybrid HRM Score [2]: -VE; Ro2 Hybrid HRM Score [2]: -VE
2 | CCOC(=O)Nc1ccc(NCc2ccc(F)cc2)nc1N [Flupirtine (Kv7 hepatotoxic@400)] | +VE | +VE | +VE |  |  | 
3 | O=C(Nc1cccc2c(=O)cc(-c3nnn[nH]3)oc12)c1ccc(OCCCCc2ccccc2)cc1 [Pranlukast] | +VE | +VE | +VE |  |  | 
4 | CCc1oc2ccccc2c1C(=O)c1ccc(O)cc1 [benzarone] | +VE | +VE | +VE | +VE | vMost-DILI-Concern | 
5 | CCc1oc2ccccc2c1C(=O)c1cc(I)c(O)c(I)c1 [benziodarone] | +VE | +VE | +VE | +VE | vMost-DILI-Concern | 
6 | CCOc1nc2cccc(C(=O)O)c2n1Cc1ccc(-c2ccccc2-c2nnn[nH]2)cc1 [candesartan] | +VE | -VE | -VE | +VE | vLess-DILI-Concern | 
7 | N.N.[Cl][Pt][Cl] [cisplatin] |  |  | -VE |  |  | 
8 | CN1CCC[C@@H]1CCO[C@](C)(c1ccccc1)c1ccc(Cl)cc1 [clemastine] | -VE | -VE | -VE | -VE | vNo-DILI-Concern | In vivo DILI ([3]; […]): -VE
9 | CN1C[C@H](C(=O)N[C@]2(C)O[C@@]3(O)[C@@H]4CCCN4C(=O)[C@H](Cc4ccccc4)N3C2=O)C[C@@H]2c3cccc4[nH]cc(c34)C[C@H]21 [dihydroergotamine] | -VE |  |  | -VE | vNo-DILI-Concern | Partition Hybrid HRM Score [2]: -VE; Ro2 Hybrid HRM Score [2]: -VE
10 | NC(N)=Nc1nc(CSCCN/C=N/S(=O)(=O)c2ccc(Br)cc2)cs1 [ebrotidine] | +VE | +VE | +VE | +VE | vMost-DILI-Concern | 
11 | COC(=O)CCc1ccc(OCC(O)CNC(C)C)cc1 (stereo not shown) [esmolol] | -VE | +VE | -VE | -VE | vNo-DILI-Concern | 
12 | C[C@]12CC[C@@H]3c4ccc(O)cc4CC[C@H]3[C@@H]1CC[C@@H]2O [estradiol] |  |  |  |  |  | DILI +VE (5-8), DILI -VE (-4) ([1]; in vivo): +VE; DILI severity category ([1]; in vivo): vLess-DILI-Concern; Partition Hybrid HRM Score [2]: -VE; Ro2 Hybrid HRM Score [2]: -VE
13 | C=C(CC)C(=O)c1ccc(OCC(=O)O)c(Cl)c1Cl [ethacrynic acid] |  |  |  |  |  | Partition Hybrid HRM Score, In vitro Assay ([2]; Partition hybrid, ref Aleo 2019): +VE; Ro2 Hybrid HRM Score, In vitro Assay ([2]; Rule of Two hybrid, ref Aleo 2019): +VE
14 | Cc1nc(-c2ccc(OCC(C)C)c(C#N)c2)sc1C(=O)O [febuxostat] | +VE | +VE | +VE | +VE | vMost-DILI-Concern | 
15 | O=C(COc1ccc(Cl)cc1)N1CCN(Cc2ccc3c(c2)OCO3)CC1 [fipexide] | +VE | +VE | +VE | +VE | vMost-DILI-Concern | 
16 | O=C(CCCN1CCC(O)(c2ccc(Cl)cc2)CC1)c1ccc(F)cc1 [haloperidol] |  | -VE | -VE |  |  | 
17 | CC(C)(C)NC(=O)[C@@H]1CN(Cc2cccnc2)CCN1C[C@@H](O)C[C@@H](Cc1ccccc1)C(=O)N[C@H]1c2ccccc2C[C@H]1O [indinavir] |  |  |  |  |  | Partition Hybrid HRM Score [2]: +VE; Ro2 Hybrid HRM Score [2]: +VE
18 | CCCNS(=O)(=O)Nc1ncnc(OCCOc2ncc(Br)cn2)c1-c1ccc(Br)cc1 [macitentan] | +VE | +VE | +VE |  |  | 
19 | COCCc1ccc(OCC(O)CNC(C)C)cc1 (stereo not shown) [metoprolol] |  | +VE | -VE |  |  | 
20 | Cc1ccc(Nc2nccc(N(C)c3ccc4c(C)n(C)nc4c3)n2)cc1S(N)(=O)=O [pazopanib] |  | +VE | +VE |  |  | 
21 | COc1ccccc1OCC(O)CN1CCN(CC(=O)Nc2c(C)cccc2C)CC1 (stereo not shown) [ranolazine] |  |  |  | -VE | vNo-DILI-Concern | In vivo DILI ([3]; ref Schadt 2015): -VE; Cellular toxicity (3T3 cells) [4]: -VE; Combined Assay [4]: +VE; GSH adduct HML [4]: -VE; Hepatocyte cellular toxicity [4]: -VE; MitoTox 3T3 [4]: +VE; TDI CYP3A4 [4]: -VE; hBSEP inhibition [4]: -VE
22 | O=C(O)COc1ccc(C(=O)c2cccs2)c(Cl)c1Cl [ticrynafen] | +VE | +VE | +VE |  |  | 
23 | Cc1ccc(/C(=C\CN2CCCC2)c2ccccn2)cc1 [triprolidine] |  | -VE | -VE |  |  | 
24 | CCCCC(=O)N(Cc1ccc(-c2ccccc2-c2nnn[nH]2)cc1)[C@H](C(=O)O)C(C)C [valsartan] |  |  |  |  |  | DILI +VE (5-8), DILI -VE (-4) ([1]; in vivo): +VE; DILI severity category ([1]; in vivo): vLess-DILI-Concern; Ro2 Hybrid HRM Score [2]: +VE
25 | Cc1ccc(-c2nc3ccc(C)cn3c2CC(=O)N(C)C)cc1 [zolpidem] |  |  |  | -VE | Ambiguous DILI-concern | In vivo DILI ([3]; […]): -VE; In vivo DILI ([3]; ref Schadt 2015): -VE; Cellular toxicity (3T3 cells) [4]: -VE; Combined Assay [4]: -VE; GSH adduct HML [4]: -VE; Hepatocyte cellular toxicity [4]: -VE; MitoTox 3T3 [4]: -VE; TDI CYP3A4 [4]: -VE; hBSEP inhibition [4]: -VE
